Molecular target: T1, mGluR2 (Rattus norvegicus, UniProt P31421)
T1 construct: from tissue; host or cells: brain of living male Wistar rats (in vivo microPET)
Test: MicroPET imaging: baseline, blocking and chase experiments
Format: in vivo, Wistar rats
Settings: chase 0.3 mg/kg i.v. ~30 min after [^11C]B-2
Experimental: Imaging experiments were performed on a Focus™ 220 microPET scanner (Concorde Microsystems, Knoxyille, Tenn., USA) using healthy male Wistar rats. During all scan sessions, animals were kept under gas anesthesia (2.5% isoflurane in O2 at 1 L/min flow rate).
Dynamic scans of 90 min were acquired. After reconstruction of the images (filtered back projection), they were spatially normalized to an in-house created [^11C]raclopride template of the rat brain in Paxinos coordinates. Automated and symmetric volumes of interest (VOIs) were generated for different brain regions (striatum, cortex, cerebellum, hippocampus, hypothalamus, thalamus, substantia nigra, nucleus accumbens and lateral globus pallidus) from which time-activity curves (TAC) were constructed for each individual scan, using PMOD software (v 3.1, PMOD Technologies Ltd.). The radioactivity concentration in the different brain regions was expressed as SUV as a function of time p.i. of the radiotracer by normalization for body weight of the animal and injected dose.
Rats were injected with 30-60 MBq of high specific activity formulation of [^11C]B-4, [^11C]B-2, [^11C]B-7, or [^11C]B-10 via the tail vein under isoflurane anesthesia (2.5% in O2 at 1 L/min flow rate).
For pretreatment and displacement experiments, compound A, compound B or ritanserin were dissolved and administered in a vehicle containing 20% (2-hydroxypropyl)-β-cyclodextrine and two equivalents hydrochloric acid. The ritanserin solution was protected from light.
A self-blocking study was done by subcutaneous (s.c.) administration of the authentic reference material (for [^11C]B-4) at ˜30 min prior to the radiotracer injection. Displacement studies were performed by i.v. injection of compound B at dose 4, 1, 0.3 and 0.1 mg/kg, compound A at dose 1 mg/kg or ritanserin at dose 0.3 mg/kg. All chase compounds were injected ˜30 min after radiotracer injection. A wash-out period of at least four days was maintained between the different pretreatment and displacement studies.
[^11C]B-4 was evaluated in vivo in three rats which were scanned dynamically for 90 min using μPET. The first rat was used for a baseline scan. The second rat was pretreated with authentic reference material B-4 via s.c. administration (dose 10 mg/kg) at 30 min prior to tracer injection. The third rat was used in a chase experiment and was injected i.v. with authentic reference material B-4 (dose 3 mg/kg) 30 min after tracer injection.
Two rats were injected with high specific activity tracer ([^11C]B-4, [^11C]B-2, [^11C]B-7, or [^11C]B-10) and scanned dynamically for 90 min. The first rat was scanned baseline, the second rat was injected i.v. with compound B (dose 4 mg/kg) 30 min after tracer injection. Table 16 gives an overview of the maximum and minimum SUV values in the chase experiment for the four studied tracers.
A chase experiment was performed for [^11C]B-2 with different doses of compound B (4, 1, 0.3, 0.1 mg/kg). The chase compound was injected i.v. 30 min after tracer injection. Table 17 gives an overview of the average SUV values before and after injection of the chase for the total brain.

T1 sequence (P31421 19-872): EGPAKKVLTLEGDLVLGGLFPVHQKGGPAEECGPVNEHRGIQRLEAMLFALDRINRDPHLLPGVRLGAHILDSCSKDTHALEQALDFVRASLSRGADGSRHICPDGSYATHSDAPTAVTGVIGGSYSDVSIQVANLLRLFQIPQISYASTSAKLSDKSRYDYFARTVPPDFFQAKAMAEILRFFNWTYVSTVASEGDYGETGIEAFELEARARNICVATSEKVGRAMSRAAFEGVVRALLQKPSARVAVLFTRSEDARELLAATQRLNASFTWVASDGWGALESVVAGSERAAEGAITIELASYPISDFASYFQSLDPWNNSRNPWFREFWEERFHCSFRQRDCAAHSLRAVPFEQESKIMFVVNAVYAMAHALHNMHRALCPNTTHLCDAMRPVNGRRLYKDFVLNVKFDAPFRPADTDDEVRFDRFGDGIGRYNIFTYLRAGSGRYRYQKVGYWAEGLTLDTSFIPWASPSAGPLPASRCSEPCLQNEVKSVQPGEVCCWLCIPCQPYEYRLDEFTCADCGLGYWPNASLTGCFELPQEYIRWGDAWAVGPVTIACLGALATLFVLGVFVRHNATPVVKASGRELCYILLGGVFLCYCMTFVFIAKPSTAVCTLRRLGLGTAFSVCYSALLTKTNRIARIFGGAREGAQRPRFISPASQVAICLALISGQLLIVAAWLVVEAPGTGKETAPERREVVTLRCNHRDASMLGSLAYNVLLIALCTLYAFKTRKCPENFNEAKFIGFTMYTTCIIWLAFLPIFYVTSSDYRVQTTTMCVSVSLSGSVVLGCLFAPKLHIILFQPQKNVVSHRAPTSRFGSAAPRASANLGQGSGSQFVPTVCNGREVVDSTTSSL

Cc1nc2sccn2c(=O)c1CCN1CCC(=C(c2ccc(F)cc2)c2ccc(F)cc2)CC1 [Ritanserin, ritanserin, reference compound]
effect of the chase compound on the binding of [^11C]B-2: no significant effect
